According to US20230339981A1, “KRAS G12D MODULATING COMPOUNDS” (priority 2022, published 2023):

Tests used:
AsPC-1 (KRAS G12D) cells = assay: 3D cell viability assay (spheroids, CellTiter-Glo 3D); assay type: cell-based; details: Homo sapiens, ASPC1, 96 h, AsPC-1 cells, 3D spheroids, 4 days
Summary of the method: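 AsPC-1 cells (1000/well) in DMEM with 10% FBS formed spheroids over 3 days at 37 °C in ultra-low attachment plates, then were treated with 1:3 serial dilutions for 4 days. Viability read by CellTiter-Glo 3D luminescence; EC50 as concentration giving 50% signal decrease, sigmoidal fit.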

GDP-loaded KRAS G12D = GDP-loaded KRAS G12D (Homo sapiens (Human), UniProt P01116, G12D); assay: KRAS G12D (GDP) biochemical assay (TR-FRET probe displacement); assay type: binding; details: 2 hours
GDP-loaded KRAS G12D, sequence (P01116-2 other isoform, or with tags, fused parts or gaps G12D): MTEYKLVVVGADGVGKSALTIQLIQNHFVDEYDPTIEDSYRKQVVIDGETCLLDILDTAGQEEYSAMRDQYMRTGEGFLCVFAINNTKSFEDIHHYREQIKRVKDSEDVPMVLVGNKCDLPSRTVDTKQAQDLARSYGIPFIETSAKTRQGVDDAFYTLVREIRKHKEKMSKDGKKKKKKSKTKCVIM
Summary of the method: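 TR-FRET probe displacement: 1:3 DMSO serial dilutions pre-incubated 30 min with GDP-bound KRAS G12D, followed by Eu-streptavidin/probe for 2 h at room temperature (Hepes pH 7.4, NaCl, MgCl2, Tween-20 buffer). IC50 defined as concentration halving TR-FRET ratio, from sigmoidal dose-response fit.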

GP2D (KRAS G12D) cells = assay: 2D cell viability assay (CellTiter-Glo); assay type: cell-based; details: GP2d, 96 h, 4 days
Summary of the method: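 Viability was read by CellTiter-Glo after 4 days at 37 °C of 2D culture of KRAS G12D GP2D cells (1000/well, RPMI, 10% FBS) on pre-spotted threefold compound dilutions. EC50 was fitted with a sigmoidal dose-response model as the point of half-maximal luminescence loss.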

Row | SMILES | EC50 (AsPC-1 (KRAS G12D) cells) [nM] | IC50 (GDP-loaded KRAS G12D) [nM] | EC50 (GP2D (KRAS G12D) cells) [nM]
1 | C#Cc1c(F)ccc2cc(O)cc(-c3nc4c5c(nc(OC[C@@]67CCCN6C[C@H](F)C7)nc5c3F)N3C[C@H]5CC[C@H](N5)[C@@H]3CCC4)c12 [Example 132, 5-ethynyl-6-fluoro-4-((6aS,7S,10R)-1-fluoro-13-(((2R,7aS)-2-fluorotetrahydro-1H-pyrrolizin-7a(5H)-yl)methoxy)-5,6,6a,7,8,9,10,11-octahydro-4H-3,11a,12,14,15-pentaaza-7,10-methanocyclohepta[4,5]cycloocta[1,2,3-de]naphthalen-2-yl)naphthalen-2-ol] | 50 | 0.2 | 2.2
2 | C#Cc1c(F)ccc2cc(O)cc(-c3nc4c5c(nc(OC[C@@]67CCCN6[C@H](COc6ccnc(C(F)(F)F)n6)CC7)nc5c3F)N3C[C@H]5CC[C@H](N5)[C@H]3CC4)c12 [Example 148, 5-ethynyl-6-fluoro-4-((5aR,6S,9R)-1-fluoro-12-(((3S,7aS)-3-(((2-(trifluoromethyl)pyrimidin-4-yl)oxy)methyl)tetrahydro-1H-pyrrolizin-7a(5H)-yl)methoxy)-4,5,5a,6,7,8,9,1O-octahydro-3,10a,11,13,14-pentaaza-6,9-methanonaphtho[1,8-ab]heptalen-2-yl)naphthalen-2-ol] | 7.7 | 0.1 | 0.7
3 | C#Cc1c(F)ccc2cc(O)cc(-c3nc4c5c(nc(OC[C@@]67CCCN6C[C@H](F)C7)nc5c3F)N3C[C@H]5CC[C@H](N5)[C@@H]3[C@@H](CC)C4)c12 [Example 92, 4-((5S,5aS,6S,9R)-5-ethyl-1-fluoro-12-(((2R,7aS)-2-fluorotetrahydro-1H-pyrrolizin-7a(5H)-yl)methoxy)-4,5,5a,6,7,8,9,10-octahydro-3,10a,11,13,14-pentaaza-6,9-methanonaphtho[1,8-ab]heptalen-2-yl)-5-ethynyl-6-fluoronaphthalen-2-ol] | 52 | 1.9 | 17.3
4 | Oc1cc(-c2nc3c4c(nc(OC[C@@]56CCCN5C[C@@]5(CC5(F)F)C6)nc4c2F)N2C[C@H]4CC[C@H](N4)[C@H]2CC3)c2c(OC(F)(F)F)c(F)ccc2c1 [Example 99, 4-((5aR,6S,9R)-12-(((1S,7a'S)-2,2-difluorodihydro-1′H,3′H-spiro[cyclopropane-1,2′-pyrrolizin]-7a′(5′H)-yl)methoxy)-1-fluoro-4,5,5a,6,7,8,9,10-octahydro-3,10a,11,13,14-pentaaza[6,9]methanonaphtho[1,8-ab]heptalen-2-yl)-6-fluoro-5-(trifluoromethoxy)naphthalen-2-ol] | 110 | 0.6 | 7.4
5 | C#Cc1c(F)ccc2cc(O)cc(-c3nc4c5c(nc(OC[C@@]67CCCN6[C@H](COC(C)(C(F)(F)F)C(F)(F)F)CC7)nc5c3F)N3C[C@H]5CC[C@H](N5)[C@H]3CC4)c12 [Example 109] | 0.8 | 0.1 | 1.2
6 | C#Cc1c(F)ccc2cccc(-c3nc4c5c(nc(OC[C@@]67CCCN6C[C@H](F)C7)nc5c3F)N3C[C@H]5CC[C@H](N5)[C@H]3CO4)c12 [Example 4, (5aS,6S,9R)-2-(8-ethynyl-7-fluoronaphthalen-1-yl)-1-fluoro-12-(((2R,7aS)-2-fluorotetrahydro-1H-pyrrolizin-7a(5H)-yl)methoxy)-5a,6,7,8,9,10-hexahydro-5H-4-oxa-3,10a,11,13,14-pentaaza-6,9-methanonaphtho[1,8-ab]heptalene] | 92 | 4 | 45
7 | C#Cc1c(F)ccc2cccc(-c3nc4c5c(nc(OC[C@@]67CCCN6C[C@H](F)C7)nc5c3F)N3C[C@H]5CC[C@H](N5)[C@H]3C[C@H]4C)c12 [Example 95, (4R,5aS,6S,9R)-2-(8-ethynyl-7-fluoronaphthalen-1-yl)-1-fluoro-12-(((2R,7aS)-2-fluorotetrahydro-11H-pyrrolizin-7a(5H)-yl)methoxy)-4-methyl-4,5,5a,6,7,8,9,10-octahydro-3,10a,11,13,14-pentaaza-6,9-methanonaphtho[1,8-ab]heptalene] | 200 | 0.6 | 31.9
8 | C#Cc1c(F)ccc2cccc(-c3nc4c5c(nc(OC[C@@]67CCCN6C[C@H](F)C7)nc5c3F)N3C[C@H]5CC[C@H](N5)[C@H]3CCO4)c12 [Example 124, (6aR,7S,10R)-2-(8-ethynyl-7-fluoronaphthalen-1-yl)-1-fluoro-13-(((2R,7aS)-2-fluorotetrahydro-1H-pyrrolizin-7a(5H)-yl)methoxy)-5,6,6a,7,8,9,10,11-octahydro-4-oxa-3,11a,12,14,15-pentaaza-7,10-methanocyclohepta[4,5]cycloocta[1,2,3-de]naphthalene] | 81 | 0.5 | 26
9 | C#Cc1c(F)ccc2cc(O)cc(-c3nc4c5c(nc(OC[C@@]67CCCN6C[C@H](F)C7)nc5c3F)N3C[C@H]5CC[C@H](N5)[C@@H]3[C@@H](C)[C@H]4C)c12 [Example 87, 5-ethynyl-6-fluoro-4-((4R,5S,5aS,6S,9R)-1-fluoro-12-(((2R,7aS)-2-fluorotetrahydro-1H-pyrrolizin-7a(5H)-yl)methoxy)-4,5-dimethyl-4,5,5a,6,7,8,9,10-octahydro-3,10a,11,13,14-pentaaza-6,9-methanonaphtho[1,8-ab]heptalen-2-yl)naphthalen-2-ol] | 0.3 | 0.4 | 0.2
10 | C#Cc1c(F)ccc2cccc(-c3nc4c5c(nc(OC[C@@]67CCCN6[C@H](COC(C6CC6)C(F)(F)F)CC7)nc5c3F)N3C[C@H]5CC[C@H](N5)[C@H]3CC4)c12 (stereo partly drawn) [Example 111, (5aR,6S,9R)-12-(((3S,7aS)-3-((1-cyclopropyl-2,2,2-trifluoroethoxy)methyl)tetrahydro-1H-pyrrolizin-7a(5H)-yl)methoxy)-2-(8-ethynyl-7-fluoronaphthalen-1-yl)-1-fluoro-4,5,5a,6,7,8,9,10-octahydro-3,10a,11,13,14-pentaaza-6,9-methanonaphtho[1,8-ab]heptalene] | 360 | 0.7 | 69.9
11 | C#Cc1c(F)ccc2cc(O)cc(-c3nc4c5c(nc(OC[C@]67CCCN6C[C@@H](OC(F)(F)F)C7)nc5c3F)N3C[C@H]5CC[C@H](N5)[C@H]3CC4)c12 (stereo in doubt) [Example 141, 5-ethynyl-6-fluoro-4-((5aR,6S,9R)-1-fluoro-12-((trans-2-(trifluoromethoxy)tetrahydro-1H-pyrrolizin-7a(5H)-yl)methoxy)-4,5,5a,6,7,8,9,10-octahydro-3,10a,11,13,14-pentaaza-6,9-methanonaphtho[1,8-ab]heptalen-2-yl)naphthalen-2-ol] | 3.7 | 0.2 | 0.4
12 | C#Cc1c(F)ccc2cc(O)cc(-c3nc4c5c(nc(OC[C@@]67CCCN6[C@H](COC(C(F)(F)F)(C(F)(F)F)C(F)(F)F)CC7)nc5c3F)N3C[C@H]5CC[C@H](N5)[C@H]3CCC4)c12 [Example 181, 5-ethynyl-6-fluoro-4-((6aR,7S,10R)-1-fluoro-13-(((3S,7aS)-3-(((1,1,1,3,3,3-hexafluoro-2-(trifluoromethyl)propan-2-yl)oxy)methyl)tetrahydro-1H-pyrrolizin-7a(5H)-yl)methoxy)-5,6,6a,7,8,9,10,11-octahydro-4H-3,11a,12,14,15-pentaaza-7,10-methanocyclohepta[4,5]cycloocta[1,2,3-de]naphthalen-2-yl)naphthalen-2-ol] | 6.9 | 0.5 | 0.3
13 | C#Cc1c(F)ccc2cccc(-c3nc4c5c(nc(OC[C@@]67CCCN6C[C@H](F)C7)nc5c3F)N3C[C@H]5CC[C@H](N5)[C@H]3CC4)c12 [Example 23, (5aR,6S,9R)-2-(8-ethynyl-7-fluoronaphthalen-1-yl)-1-fluoro-12-(((2R,7aS)-2-fluorotetrahydro-1H-pyrrolizin-7a(5H)-yl)methoxy)-4,5,5a,6,7,8,9,10-octahydro-3,10a,11,13,14-pentaaza-6,9-methanonaphtho[1,8-ab]heptalene] | 31 | 1 | 9
14 | C#Cc1c(F)ccc2cccc(-c3nc4c5c(nc(OC[C@@]67CCCN6[C@H](COC(C)(C(F)(F)F)C(F)(F)F)CC7)nc5c3F)N3C[C@H]5CC[C@H](N5)[C@H]3CC4)c12 [Example 112, (5aR,6S,9R)-2-(8-ethynyl-7-fluoronaphthalen-1-yl)-1-fluoro-12-(((3S,7aS)-3-(((1,1,1,3,3,3-hexafluoro-2-methylpropan-2-yl)oxy)methyl)tetrahydro-1H-pyrrolizin-7a(5H)-yl)methoxy)-4,5,5a,6,7,8,9,10-octahydro-3,10a,11,13,14-pentaaza-6,9-methanonaphtho[1,8-ab]heptalene] | 270 | 0.3 | 41
15 | C[C@H]1C[C@@H]2[C@@H]3CC[C@H](CN2c2nc(OC[C@@]45CCCN4C[C@H](F)C5)nc4c(F)c(-c5cc(O)cc6ccc(F)c(F)c56)nc1c24)N3 [Example 81, 5,6-difluoro-4-((4S,5aR,6S,9R)-1-fluoro-12-(((2R,7aS)-2-fluorotetrahydro-1H-pyrrolizin-7a(5H)-yl)methoxy)-4-methyl-4,5,5a,6,7,8,9,10-octahydro-3,10a,11,13,14-pentaaza-6,9-methanonaphtho[1,8-ab]heptalen-2-yl)naphthalen-2-ol] | 18 | 0.2 | 2.8
